# Test results reported in ChEMBL document CHEMBL4017456, “The discovery of tetrahydropyridine analogs as hNav1.7 selective inhibitors for analgesia” (Bioorg Med Chem Lett, 2017).
# Tests used:
# [1] = in vivo; settings: Sprague-Dawley, rat, plasma, po, 2 mg/kg
# [2] = Ratio of drug level in brain to plasma in Sprague-Dawley rat at 0.5 mg/kg, iv or 2 mg/kg, po by LC-MS/MS analysis; format: ADME, organism-based; settings: read-out: BPR
# [3] = in vivo; settings: Sprague-Dawley, rat, iv, 0.5 mg/kg
# [4] = in vivo; settings: Sprague-Dawley, rat, plasma, iv, 0.5 mg/kg
# [5] = in vivo; settings: Sprague-Dawley, rat, plasma, iv, 0.5 mg/kg; remark: listed apart in the source
# [6] = in vivo; settings: Sprague-Dawley, rat, iv, 0.5 mg/kg; remark: listed apart in the source
# [7] = in vivo; settings: Sprague-Dawley, rat, plasma, po, 2 mg/kg; remark: listed apart in the source
# [8] = in vivo; settings: Sprague-Dawley, rat, plasma, po, 2 mg/kg; remark: listed apart in the source
# [9] = tested on: Plasma; assay: Plasma concentration in Sprague-Dawley rat at 100 mg/kg administered via oral gavage by LC-MS/MS method; format: ADME, organism-based; settings: in vivo
# [10] = tested on: Plasma; assay: Free plasma concentration in Sprague-Dawley rat at 100 mg/kg administered via oral gavage by LC-MS/MS method; format: ADME, organism-based; settings: in vivo
# [11] = AUC (0 to last) in Sprague-Dawley rat plasma at 1 mg/kg, iv administered as single bolus dose by LC-MS/MS analysis; format: ADME, organism-based; parameters: dose 1 mg/kg, route intravenous, time 0 - last
# [12] = Clearance in Sprague-Dawley rat at 1 mg/kg, iv administered as single bolus dose by LC-MS/MS analysis; format: ADME, organism-based; settings: in vivo
# [13] = in vivo; settings: Sprague-Dawley, rat, plasma, po, 10 mg/kg
# [14] = in vivo; settings: Sprague-Dawley, rat, plasma, po, 10 mg/kg; remark: listed apart in the source
# [15] = Ratio of drug level in brain to plasma in Sprague-Dawley rat at 1 mg/kg, iv or 10 mg/kg, po by LC-MS/MS analysis; format: ADME, organism-based; settings: read-out: BPR
# [16] = Half life in Sprague-Dawley rat plasma at 1 mg/kg, iv administered as single bolus dose by LC-MS/MS analysis; format: ADME, organism-based
# [17] = in vivo; settings: Sprague-Dawley, rat, plasma, po, 10 mg/kg; remark: listed apart in the source
# [18] = in vitro; settings: human, Caco-2
# [19] = Volume of distribution at steady state in Sprague-Dawley rat plasma at 1 mg/kg, iv administered as single bolus dose by LC-MS/MS analysis; format: ADME, organism-based; settings: read-out: Vdss
structure (smiles),measurement,setting,value
N[C@@H]1CCC=C(c2ccc(F)cc2)[C@H]1COc1cc(F)c(S(=O)(=O)Nc2cscn2)cc1Cl,Tmax,[1],1.7 h
same,Kp,[2],0.26
same,clearance,[3],39.2 mL/min/kg
same,half-life,[4],3.6 h
same,Vd,[5],8.9 L/kg
same,AUC(0-t),[6],0.34 µM·h
same,bioavailability,[7],18.4%
same,AUC(0-t),[8],0.25 µM·h
O=S(=O)(Nc1cscn1)c1cc(Cl)c(OC[C@H]2NCCC=C2c2ccc(F)cc2)cc1F,concentration,[9],82.1 µM
same,Cp(f),[10],0.41 µM
O=S(=O)(Nc1cscn1)c1cc(Cl)c(OCC2NCCC=C2c2ccc(F)cc2)cc1F (stereo unspecified),AUC(0-t),[11],3.56 µM·h
same,clearance,[12],4.5 mL/min/kg
same,AUC(0-t),[13],41.8 µM·h
same,Tmax,[14],3.8 h
same,Kp,[15],0.017
same,half-life,[16],2.7 h
same,bioavailability,[17],64.8%
same,Papp A→B,[18],3.2 ×10⁻⁶ cm/s
same,Vd,[19],0.6 L/kg
Nc1[nH]ncc1-c1cc(Cl)ccc1Oc1cc(F)c(S(=O)(=O)Nc2cscn2)cc1Cl [PF-05089771],concentration,[9],55.8 µM
same,Cp(f),[10],0.279 µM
